# In PubChem BioAssay AID2060887 (Molecular Pharmacology Branch, DTP, NCI, 2025):
# Test system: 782815-120-R-J1-PDC complex spheroid viability
# Experiment: Anticancer human tumor 782815-120-R-J1-PDC patient-derived colon adenocarcinoma cell line growth inhibition [RAS]
# Conditions: for IC50: curve of first compound; for viability, T/C: stronger effect = lower value
# How it was run: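 Multi-cell-type spheroids: tumor cells plus HUVEC endothelial cells and mesenchymal stem cells. RAS-pathway inhibitors were combined with targeted agents, each dosed in half-log steps down from clinical Cmax, or from 10 microM when Cmax was unknown.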
# [1] = second compound 0.000949 µM, first compound 0.0316 µM
# [2] = second compound 0.000949 µM, first compound 0.1 µM
# [3] = second compound 0.000949 µM, first compound 0.316 µM
# [4] = second compound 0.000949 µM, first compound 1 µM
# [5] = second compound 0.000949 µM, first compound 3.16 µM
# [6] = second compound 0.000949 µM, first compound 10 µM
# [7] = second compound 0.003 µM, first compound 0.0316 µM
# [8] = second compound 0.003 µM, first compound 0.1 µM
# [9] = second compound 0.003 µM, first compound 0.316 µM
# [10] = second compound 0.003 µM, first compound 1 µM
# [11] = second compound 0.003 µM, first compound 3.16 µM
# [12] = second compound 0.003 µM, first compound 10 µM
# [13] = second compound 0.00949 µM, first compound 0.0316 µM
# [14] = second compound 0.00949 µM, first compound 0.1 µM
# [15] = second compound 0.00949 µM, first compound 0.316 µM
# [16] = second compound 0.00949 µM, first compound 1 µM
# [17] = second compound 0.00949 µM, first compound 3.16 µM
# [18] = second compound 0.00949 µM, first compound 10 µM
# [19] = second compound 0.03 µM, first compound 0.0316 µM
# [20] = second compound 0.03 µM, first compound 0.1 µM
# [21] = second compound 0.03 µM, first compound 0.316 µM
# [22] = second compound 0.03 µM, first compound 1 µM
# [23] = second compound 0.03 µM, first compound 3.16 µM
# [24] = second compound 0.03 µM, first compound 10 µM
# [25] = second compound 0.0949 µM, first compound 0.0316 µM
# [26] = second compound 0.0949 µM, first compound 0.1 µM
# [27] = second compound 0.0949 µM, first compound 0.316 µM
# [28] = second compound 0.0949 µM, first compound 1 µM
# [29] = second compound 0.0949 µM, first compound 3.16 µM
# [30] = second compound 0.0949 µM, first compound 10 µM
# [31] = second compound 0.3 µM, first compound 0.0316 µM
# [32] = second compound 0.3 µM, first compound 0.1 µM
# [33] = second compound 0.3 µM, first compound 0.316 µM
# [34] = second compound 0.3 µM, first compound 1 µM
# [35] = second compound 0.3 µM, first compound 3.16 µM
# [36] = second compound 0.3 µM, first compound 10 µM
# 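Also: spheroids exposed to compounds for 7 days before reading.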
# 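For viability, T/C in this document: 100% = DMSO vehicle control viability.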
compound,measurement,setting,value
CC1(O)CCCC1n1c(=O)c(C(F)F)cc2cnc(NC3CCN(S(C)(=O)=O)CC3)nc21 (centres undefined) + CCn1c(-c2cc(N3CCN(C)CC3)cnc2C(C)OC)c2c3cc(ccc31)-c1csc(n1)CC(NC(=O)C1CC1C)C(=O)N1CCCC(N1)C(=O)OCC(C)(C)C2,IC50,second compound 0.000949 µM,3340 nM
same,IC50,second compound 0.003 µM,< 31.6 nM
same,IC50,second compound 0.00949 µM,< 31.6 nM
same,IC50,second compound 0.03 µM,< 31.6 nM
same,IC50,second compound 0.0949 µM,< 31.6 nM
same,IC50,second compound 0.3 µM,< 31.6 nM
same,"viability, T/C",[1],58.6%
same,"viability, T/C",[2],48.5%
same,"viability, T/C",[3],45%
same,"viability, T/C",[4],53.4%
same,"viability, T/C",[5],52.9%
same,"viability, T/C",[6],17%
same,"viability, T/C",[7],40.2%
same,"viability, T/C",[8],45.4%
same,"viability, T/C",[9],41.3%
same,"viability, T/C",[10],41.8%
same,"viability, T/C",[11],39.1%
same,"viability, T/C",[12],15.1%
same,"viability, T/C",[13],26.1%
same,"viability, T/C",[14],28.3%
same,"viability, T/C",[15],22.4%
same,"viability, T/C",[16],26.3%
same,"viability, T/C",[17],30%
same,"viability, T/C",[18],8.61%
same,"viability, T/C",[19],16.6%
same,"viability, T/C",[20],17.6%
same,"viability, T/C",[21],17.4%
same,"viability, T/C",[22],15.8%
same,"viability, T/C",[23],22.4%
same,"viability, T/C",[24],4.67%
same,"viability, T/C",[25],12.4%
same,"viability, T/C",[26],13.8%
same,"viability, T/C",[27],13.6%
same,"viability, T/C",[28],13.5%
same,"viability, T/C",[29],18.5%
same,"viability, T/C",[30],5.05%
same,"viability, T/C",[31],14.8%
same,"viability, T/C",[32],12.7%
same,"viability, T/C",[33],13.9%
same,"viability, T/C",[34],15%
same,"viability, T/C",[35],18.2%
same,"viability, T/C",[36],4.68%
CCC(CC)c1cc(NC2CCC(N)C2)n2nccc2n1 (centres undefined) + CCn1c(-c2cc(N3CCN(C)CC3)cnc2C(C)OC)c2c3cc(ccc31)-c1csc(n1)CC(NC(=O)C1CC1C)C(=O)N1CCCC(N1)C(=O)OCC(C)(C)C2,IC50,second compound 0.000949 µM,2020 nM
same,IC50,second compound 0.003 µM,1060 nM
same,IC50,second compound 0.00949 µM,< 31.6 nM
same,IC50,second compound 0.03 µM,< 31.6 nM
same,IC50,second compound 0.0949 µM,< 31.6 nM
same,IC50,second compound 0.3 µM,< 31.6 nM
same,"viability, T/C",[1],69.7%
same,"viability, T/C",[2],75.9%
same,"viability, T/C",[3],74.2%
same,"viability, T/C",[4],84.7%
same,"viability, T/C",[5],33.4%
same,"viability, T/C",[6],1.4%
same,"viability, T/C",[7],56.2%
same,"viability, T/C",[8],53.3%
same,"viability, T/C",[9],57.4%
same,"viability, T/C",[10],52%
same,"viability, T/C",[11],12.1%
same,"viability, T/C",[12],1.08%
same,"viability, T/C",[13],32.4%
same,"viability, T/C",[14],37.1%
same,"viability, T/C",[15],33.6%
same,"viability, T/C",[16],33.7%
same,"viability, T/C",[17],6.65%
same,"viability, T/C",[18],1.2%
same,"viability, T/C",[19],21.2%
same,"viability, T/C",[20],20%
same,"viability, T/C",[21],19.9%
same,"viability, T/C",[22],20.9%
same,"viability, T/C",[23],3.02%
same,"viability, T/C",[24],1.53%
same,"viability, T/C",[25],18.6%
same,"viability, T/C",[26],19.7%
same,"viability, T/C",[27],16.1%
same,"viability, T/C",[28],16.4%
same,"viability, T/C",[29],2.74%
same,"viability, T/C",[30],1.31%
same,"viability, T/C",[31],16.6%
same,"viability, T/C",[32],15.1%
same,"viability, T/C",[33],16.5%
same,"viability, T/C",[34],15.2%
same,"viability, T/C",[35],1.69%
same,"viability, T/C",[36],1.33%
